Source: US20050101542A1, “Combination therapy for controlling appetites” (Regents of the University of California, priority 2002, published 2005)
Values joined by “and” are separate entries in the source; they are usually repeats but may differ in a detail not shown here. Identical values can stand only once.

Assays:
[1] = OEA for 2 weeks in obese Zucker rats: serum lipids, glucose, food intake, body weight; format: in vivo, rat
Method: Subchronic experiments. Male wild-type and PPARα null mice were fed with a very high-fat diet (60 kcal % fat; D12492; Research Diets, NJ). […] The mice were divided into 4 groups (n=7-8 each), and treated them for 4 additional weeks with vehicle (saline/polyethylene glycol/Tween 80, 90/5/5; 1 ml-kg^−1) Or OEA (5 mg-kg^−1, once daily, i.p.). In a separate experiment, obese Zucker rats were treated for 2 weeks with vehicle or OEA (5 mg-kg^−1, once daily, i.p.), while maintaining them on a regular rodent chow (RMH 2500, Prolab). Food intake and body weight were measured daily. At the end of the experiments, the animals were fasted overnight, and tissues and blood samples collected for biochemical analyses.
Chronic experiment: In a separate experiment, we treated obese Zucker rats for 2 weeks with vehicle (saline/polyethylene glycol/Tween-80, 90/5/5; 1 ml kg^−1, once daily, i.p.) or OEA (5 mg kg^−1, once daily, i.p.), while maintaining them on a regular rodent chow (RMH 2500, Prolab). We measured food intake and body weight daily. At the end of the experiments, the animals were fasted overnight, and tissues and blood samples collected for biochemical analyses.
Lipids were extracted from mouse liver and epidydimal adipose tissue (Bligh and Dyer, 1959) and measured triglycerides with a commercial kit (Sigma). Serum lipids and glucose were measured with an automated Synchron LX® system (Beckman-Coulter).

Hepatocyte = test: [14C]oleate oxidation to ketone bodies in hepatocytes; format: cell-based, rat; settings: 10 min incubation
From the text: OEA-like compounds and modulators can be used to modulate fat metabolism. Such compounds can also be assayed for their effect on fatty acid metabolism. The effect of the candidate compound on fatty acid metabolism can be measured by measurements of fatty acid oxidation in primary cultures of liver cells. Hepatocytes may be used to determine the rate of oleate oxidation to ketone bodies and carbon dioxide. Such cells can be isolated from adult rat liver by enzymatic digestion as described by Beynen et al. in Diabetes 28:828 (1979). Cells typically are cultured in suspension and incubated in Krebs-Henseleit's bicarbonate medium supplemented with bovine serum albumin and glucose as described by Guzman & Geelen, Biochem. J., 287:487 (1992). The protein concentration of the cultured cells can be determined and cells seeded in 2 ml media so that 4-6 mg protein per ml is present in the reaction mixture. […] Protein concentration can be determined using a Lowry assay. The rate of oleate conversion into ketone bodies may be expressed as nmol of oleate oxidized per hour per mg protein and may be determined using liquid scintillation counting. […]

c-fos mRNA = c-fos mRNA in situ hybridization in rat brain; format: in vivo; settings: 10 mg per kg i.p., 60 min; PVN, supraoptic nucleus, NST
Method: In situ hybridization. Rats were accustomed to the handling and injection procedure for five days. On day six, vehicle or drug OEA (10 mg per kg, i.p.), or oleic acid (10 mg per kg) was administered, and the rats killed 60 min later by decapitation under anesthesia. In situ hybridization analyses were conducted using ^35S-labeled cRNA probes for c-fos (Guthrie et al., Proc. Natl. Acad. Sci. U.S.A., 90:3329-3333 (1993)) and choline acetyl transferase (ChAT) (Lauterborn et al., Brain Res. Mol. Brain Res., 17:59-69 (1993)). Average hybridization densities were determined from at least three tissue sections per rat. Statistical significance was evaluated using one-way analysis of variance (ANOVA) followed by the Tukey-Kramer post-hoc test for paired comparisons.
The compounds of the invention may use peripheral sensory inputs to suppress appetite. Peripheral sensory inputs related to appetite suppression recruit several CNS structures, which include the nucleus of the solitary tract (NST) in the brainstem and the arcuate and paraventricular (PVN) Nuclei in the hypothalamus (Schwartz et al., Nature, 404:661-671 (2000)). To identify the brain pathways engaged during OEA-induced hypophagia, mRNA levels for the activity regulated gene c-fos (Curran et al., Oncogene, 2:79-84 (1987)) were mapped by in situ hybridization after systemic administration of OEA, oleic acid or vehicle. […]

iNOS = test: Transrepression of iNOS expression in mouse jejunum; format: in vivo; settings: jejunum of C57BL/6J mice; OEA or oleic acid 10, Wy-14643 30 mg kg^−1 i.p.
Method: Tissues were stored in RnaLater™ (Ambion), extracted total RNA with TRIzol™ (Invitrogen) and quantified it with Ribogreen™ (Molecular Probes). cDNA was synthesized by using SuperscriptII RNase H-reverse transcriptase (Invitrogen).
Reverse transcription of total RNA (2 μg) was performed using Oligo(dT)12-18 primer (0.2 μg) for 50 min at 42° C. Real Time Quantitative (RTQ) PCR was conducted using an ABI PRISM 7700 sequence detection system (Applied Biosystems). Primer/probe sets were designed using the Primer Express™ software and gene sequences available from the Genebank™ database. Primers and fluorogenic probes were synthesized by TIB (Adelphia). The primer/probe sequences for the mouse genes were:
RNA levels were normalized by using glyceraldehyde 3-phosphate dehydrogenase (GAPDH) as an internal standard. mRNA levels were measured by generating six-point serial standard curves using mouse total RNA. Estimates of relative mRNA abundance (in arbitrary units) were made by using the CT value (Schmittgen et al., 2000). Relative quantifications of RNAs of interest were made by using the 2^ΔCT formula, in which ΔCT was calculated by subtracting the CT value for GAPDH from the CT value for the gene of interest. This formula was validated for each primer/probe set by using six-point serial standard curves.

[2] = OEA 5 mg kg−1 i.p. once a day for 2 weeks

CCCCCCCC/C=C\CCCCCCCC(=O)NCCO [OEA, Z-2-hydroxyethyl octadec-9-enamide]
Serum cholesterol [1, 2]: 66.14 ± 7.06 mg/dL
Serum glucose [1, 2]: 221.25 ± 23.80 mg/dL
Serum triglycerides [1, 2]: 394.17 ± 49.40 mg/dL
food intake and body-weight gain ([1]; OEA 5 mg-kg^−1 once daily for 2 weeks i.p.): significant inhibition
Stimulatory effect of 10 μM OEA on [14C]oleate oxidation to ketone bodies (Hepatocyte): 21+−6% and 21 ± 6 (n = 4) %
c-fos mRNA levels in brain regions (c-fos mRNA): highly localized increase
iNOS expression (iNOS): significantly decreased
